Source: paper PMC11470957, “Principles of paralog-specific targeted protein degradation engaging the C-degron E3 KLHDC2” (Nature Communications, 2024)
Where “and” joins values, the source holds several entries; their conditions need not be identical. Identical values can stand only once. Entries after “also recorded” stand apart in the source; their conditions may differ.

Tests used:
[1] = tested on: KLHDC2, KLHDC3, KLHDC10, KLHDC1 E3 ligases; details: for inhibition of substrate ubiquitylation by Kelch family E3 ligases other than KLHDC2: ligand alone, Fig S5b, c
KLHDC2^SBD / BRD4^BD2 = KLHDC2^SBD / BRD4^BD2 (Homo sapiens, UniProt O60885+Q9Y2U9); assay: ITC, ternary complex KLHDC2^SBD with PROTAC-BRD4^BD2
BRD2^BD2 = BRD2^BD2 (Homo sapiens, UniProt P25440); assay: ITC, binary binding to BRD2^BD2
KLHDC2^SBD / BRD3^BD2 = KLHDC2^SBD / BRD3^BD2 (Homo sapiens, UniProt Q15059+Q9Y2U9); assay: ITC, ternary complex KLHDC2^SBD with PROTAC-BRD3^BD2
[2] = tested on: CUL2^KLHDC2, CUL2^KLHDC3, CUL2^KLHDC10, CUL5^KLHDC1; assay: SJ46421-dependent BRD^BD2 ubiquitylation by KLHDC-family CRLs (E3 selectivity); details: Figs 5a, S5a
BRD4^BD2 = BRD4^BD2 (Homo sapiens, UniProt O60885); assay: ITC, binary binding to BRD4^BD2
[3] = biological target: K291A KLHDC2^SBD / BRD3^BD2 (Homo sapiens, UniProt Q15059+Q9Y2U9, K291A); assay: ITC, ternary complex K291A KLHDC2^SBD with PROTAC-BRD3^BD2
R56A KLHDC2^SBD = biological target: T1, R56A KLHDC2^SBD (Homo sapiens, UniProt Q9Y2U9, R56A); assay: ITC, binary binding to R56A KLHDC2^SBD
T1 sequence (Q9Y2U9 15-361 R56A): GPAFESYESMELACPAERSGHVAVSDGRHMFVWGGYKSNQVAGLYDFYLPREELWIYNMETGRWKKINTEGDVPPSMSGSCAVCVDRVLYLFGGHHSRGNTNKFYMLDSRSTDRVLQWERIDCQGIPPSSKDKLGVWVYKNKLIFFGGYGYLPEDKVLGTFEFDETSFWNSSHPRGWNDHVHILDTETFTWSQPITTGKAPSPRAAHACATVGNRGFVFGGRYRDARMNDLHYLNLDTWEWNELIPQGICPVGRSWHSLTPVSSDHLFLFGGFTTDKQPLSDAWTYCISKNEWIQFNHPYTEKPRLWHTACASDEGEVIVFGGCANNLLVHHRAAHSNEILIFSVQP

[4] = tested on: BD2 domain from BRD2, BRD3, or BRD4 / neddylated CRL2^KLHDC2; assay: Pulse-chase PROTAC-dependent ubiquitylation of BRD BD2 domains by neddylated CRL2^KLHDC2; details: neddylated CRL2^KLHDC2 not subject to autoinhibition; Fig 3e
BRD2 = BRD2 (Homo sapiens, UniProt P25440); assay: Western blot of BRD2 levels after cellular dosing
[5] = cell: PROTAC-BRD4^BD2, syringe: KLHDC2^SBD
[6] = cell: SJ46421, syringe: BRD2^BD2
[7] = cell: PROTAC-BRD3^BD2, syringe: KLHDC2^SBD
[8] = ITC, syringe BRD4BD2, cell compound, Rep1, Rep2
[9] = cell: SJ46421, syringe: BRD4^BD2
[10] = ITC source data Fig4f, N=1, syringe K291A KLHDC2, cell SJ46421-BRD3BD2
[11] = ITC, syringe K291A KLHDC2, cell compound-BRD3BD2, N=1
[12] = cell: SJ46421-BRD3^BD2, syringe: K291A KLHDC2^SBD, n=1
[13] = cell: SJ46421, syringe: R56A KLHDC2^SBD

Chain of BRD2 (P25440 whole entry): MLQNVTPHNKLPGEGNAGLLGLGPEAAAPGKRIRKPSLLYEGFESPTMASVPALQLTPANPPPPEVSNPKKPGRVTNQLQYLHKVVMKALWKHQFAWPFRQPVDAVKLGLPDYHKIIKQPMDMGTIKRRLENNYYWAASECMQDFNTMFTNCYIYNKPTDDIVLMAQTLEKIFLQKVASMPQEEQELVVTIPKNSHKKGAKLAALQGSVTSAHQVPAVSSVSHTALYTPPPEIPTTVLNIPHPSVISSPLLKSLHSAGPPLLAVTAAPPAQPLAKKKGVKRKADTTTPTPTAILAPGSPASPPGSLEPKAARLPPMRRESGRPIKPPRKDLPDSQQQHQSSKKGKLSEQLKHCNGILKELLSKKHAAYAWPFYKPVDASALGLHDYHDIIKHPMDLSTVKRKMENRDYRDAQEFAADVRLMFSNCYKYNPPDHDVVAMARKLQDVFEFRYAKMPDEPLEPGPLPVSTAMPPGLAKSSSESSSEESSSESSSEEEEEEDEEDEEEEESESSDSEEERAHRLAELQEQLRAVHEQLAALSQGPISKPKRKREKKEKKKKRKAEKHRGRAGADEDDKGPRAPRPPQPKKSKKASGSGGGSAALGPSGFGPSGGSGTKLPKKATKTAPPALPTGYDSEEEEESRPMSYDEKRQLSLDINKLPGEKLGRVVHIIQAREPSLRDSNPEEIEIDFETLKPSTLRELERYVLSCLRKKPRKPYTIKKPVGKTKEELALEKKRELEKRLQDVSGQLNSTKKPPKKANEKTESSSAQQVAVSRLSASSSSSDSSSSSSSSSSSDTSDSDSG
Chain of KLHDC2^SBD / BRD3^BD2 (Q9Y2U9 15-361): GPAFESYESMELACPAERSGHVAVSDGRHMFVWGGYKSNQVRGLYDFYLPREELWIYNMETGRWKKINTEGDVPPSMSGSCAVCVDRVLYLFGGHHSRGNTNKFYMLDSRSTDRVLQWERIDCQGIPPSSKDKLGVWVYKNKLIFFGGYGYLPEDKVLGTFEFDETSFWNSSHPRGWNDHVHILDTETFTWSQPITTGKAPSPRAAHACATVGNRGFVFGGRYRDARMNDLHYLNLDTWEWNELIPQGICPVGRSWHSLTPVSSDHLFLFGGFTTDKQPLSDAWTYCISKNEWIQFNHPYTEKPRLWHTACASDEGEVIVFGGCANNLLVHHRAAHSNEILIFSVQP
Chain of KLHDC2^SBD / BRD3^BD2 (Q15059 306-416): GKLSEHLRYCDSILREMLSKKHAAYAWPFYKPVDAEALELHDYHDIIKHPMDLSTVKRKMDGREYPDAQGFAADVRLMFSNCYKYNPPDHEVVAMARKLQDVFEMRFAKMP
Chain of KLHDC2^SBD / BRD4^BD2 (Q9Y2U9 15-361, other chains not shown): as the sequence (Q9Y2U9 15-361) above
Chain of BRD2^BD2 (P25440 344-455): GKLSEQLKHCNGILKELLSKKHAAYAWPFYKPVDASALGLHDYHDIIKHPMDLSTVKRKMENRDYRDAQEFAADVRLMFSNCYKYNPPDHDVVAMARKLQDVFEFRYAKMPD
Chain of K291A KLHDC2^SBD / BRD3^BD2 (Q9Y2U9 15-361 K291A): as the sequence (Q9Y2U9 15-361) above, with K277A counted along it
Chain of K291A KLHDC2^SBD / BRD3^BD2 (Q15059 306-416): as the sequence (Q15059 306-416) above

O=C(O)CNC(=O)Cc1csc(-c2ccc3ccccc3c2)n1 [SJ46411]
selectivity towards KLHDC2 over other KLHDC family members ([1]; inhibition of SELK ubiquitylation): at least two orders-of-magnitude
inhibition of substrate ubiquitylation by Kelch family E3 ligases other than KLHDC2 [1]: does not show substantial effects; also recorded: largely inactive

Cc1sc2c(c1C)C(c1ccc(Cl)cc1)=N[C@@H](CC(=O)N1CCN(CCOc3cccc4ccc(-c5nc(CC(=O)NCC(=O)O)cs5)cc34)CC1)c1nnc(C)n1-2 [SJ46421]
cooperativity α (KLHDC2^SBD / BRD4^BD2; BRD4^BD2, KLHDC2^SBD): 2.8
ITC -TΔS (ternary) (KLHDC2^SBD / BRD4^BD2; [5]): -1.51 +/- 0.11 kcal/mol-1
ITC N (ternary) (KLHDC2^SBD / BRD4^BD2; [5]): 0.8
ITC ΔG (ternary) (KLHDC2^SBD / BRD4^BD2; [5]): -9.72 +/- 0.04 kcal/mol-1
ITC ΔH (ternary) (KLHDC2^SBD / BRD4^BD2; [5]): -8.22 +/- 0.09 kcal/mol-1
Kd (BRD2^BD2; ITC Kd, cell: SJ46421, syringe: BRD2^BD2): 2140 ± 306 nM
(-)TDS (BRD2^BD2; ITC, syringe BRD2BD2, cell compound, Rep1, Rep2): 2.71 and 2.54
Kd (BRD2^BD2; Kd, Rep1/Rep2, ITC source data Fig4a, syringe BRD2BD2, cell SJ46421): 2290 nM and 1890 nM
ITC -TΔS (BRD2^BD2; [6]): 2.63 +/- 0.12 kcal/mol-1
ITC N (BRD2^BD2; [6]): 0.9
ITC ΔH (BRD2^BD2; [6]): -10.5 +/- 0.45 kcal/mol-1
ΔG (binary + ternary) (KLHDC2^SBD / BRD3^BD2; BRD3^BD2): -19.9 kcal/mol
cooperativity α (KLHDC2^SBD / BRD3^BD2; BRD3^BD2, KLHDC2^SBD): 16
(-)TDS (KLHDC2^SBD / BRD3^BD2; ITC, syringe KLHDC2, cell BRD3BD2-compound (printed BRD2BD3 for SJ46421), Rep1, Rep2): 1.05
ITC N (ternary) (KLHDC2^SBD / BRD3^BD2; [7]): 0.9
ITC ΔG (ternary) (KLHDC2^SBD / BRD3^BD2; [7]): -10.8 +/- 0.01 kcal/mol-1
ITC ΔH (ternary) (KLHDC2^SBD / BRD3^BD2; [7]): -6.65 +/- 0.79 kcal/mol-1
SJ46421-dependent ubiquitylation by KLHDC3, KLHDC10, and KLHDC1 [2]: poor
(-)TDS (BRD4^BD2; [8]): 1.81 and 1.64
DH (BRD4^BD2; [8]): -9.89
Kd (BRD4^BD2; Kd, Rep1/Rep2, ITC source data Fig4a, syringe BRD4BD2, cell SJ46421): 1080 nM and 958 nM
ITC -TΔS (BRD4^BD2; [9]): 1.73 +/- 0.14 kcal/mol-1
ITC N (BRD4^BD2; [9]): 0.9
inhibition of substrate ubiquitylation by Kelch family E3 ligases other than KLHDC2 [1]: largely inactive
Kd [3]: 25.6 nM
(-)TDS, Rep1 [3, 10]: -5.73
DG, Rep1 [3, 10]: -10.6
DH, Rep1 [3, 10]: -4.87
(-)TDS [3, 11]: -5.73
DG [3, 11]: -10.6
DH [3, 11]: -4.87
cooperativity α ([3]; K291A KLHDC2^SBD, estimated from the binding affinity of SJ46421 to WT KLHDC2): 11.9
ITC -TΔS (ternary) [3, 12]: -5.73 kcal/mol-1
ITC N (ternary) [3, 12]: 0.9
ITC ΔG (ternary) [3, 12]: -10.6 kcal/mol-1
ITC ΔH (ternary) [3, 12]: -4.87 kcal/mol-1
Kd (R56A KLHDC2^SBD; ITC Kd, cell: SJ46421, syringe: R56A KLHDC2^SBD): 463 ± 15 nM
Kd (R56A KLHDC2^SBD; Kd, Rep1/Rep2, ITC source data Fig4f, syringe R56A KLHDC2, cell SJ46421): 462 nM and 464 nM
ITC -TΔS (R56A KLHDC2^SBD; [13]): -6.66 +/- 0.25 kcal/mol-1
ITC N (R56A KLHDC2^SBD; [13]): 1.0
ITC ΔG (R56A KLHDC2^SBD; [13]): -8.85 +/- 0.05 kcal/mol-1
ITC ΔH (R56A KLHDC2^SBD; [13]): -1.82 +/- 0.05 kcal/mol-1
polyubiquitylation of the BD2 domain from BRD2, BRD3, or BRD4 [4]: able to promote polyubiquitylation
BRD2 level, Western blot quantification (DMSO = 100) (BRD2; Fig 6b, KO/Rescue, 5 uM): 112.267 and 101.949
BRD2 level, Western blot quantification (DMSO = 100) (BRD2; Fig 6b, U2OS, 5 uM): 136.72 and 118.225
BRD2 level, Western blot quantification (DMSO = 100) (BRD2; Fig S6a, 293T cells, 2.5 uM): 72.5135 and 88.7213
BRD2 level, Western blot quantification (DMSO = 100) (BRD2; Fig S6a, 293T cells, 5 uM): 75.5009 and 85.1412
BRD2 level, Western blot quantification (DMSO = 100) (BRD2; Fig S6b, MDA-MB468 Cells, 10 uM): 62.2331 and 83.5917
